Reference: patent EP0428132A1, “Pradimicin derivatives” (Bristol-Myers Squibb Company, priority 1989, dated 1991)
In brackets after ≈: the same amount, converted by molar mass.

Columns and labels:
Candida albicans A25578 = assay: In vitro antifungal activity, serial agar dilution method (Table 1a); format: cell-based; conditions: A25578, YM agar (pH 7.0, Difco), 30°C for 2 days (yeast) or 4 days (filamentous fungi), read-out: MICs, Candida albicans A25578
Procedure: (§1) The inoculum size was adjusted to 10⁶ cells/ml, and a volume of approximately 0.003 ml of fungal suspension was applied to the surface of the antibiotic containing agar plates with a multiinoculator. After incubation, the lowest concentration of antibiotic causing virtually complete inhibition of fungal growth was determined as the minimum inhibitory concentration (MIC).

Candida albicans A9540 [1] = assay: as above; format: cell-based; conditions: A9540, YM agar (pH 7.0, Difco), 30°C for 2 days (yeast) or 4 days (filamentous fungi), read-out: MICs, Candida albicans A9540
Procedure: as §1

[2] = test system: Candida paratropicalis A25825; assay: as above; format: cell-based; conditions: YM agar (pH 7.0, Difco); 30°C for 2 days (yeast) or 4 days (filamentous fungi); read-out: MICs, Candida paratropicalis A25825
Procedure: as §1

[3] = test system: Candida pseudotropicalis A25802; assay: as above; format: cell-based; conditions: Kluyveromyces marxianus, YM agar (pH 7.0, Difco), 30°C for 2 days (yeast) or 4 days (filamentous fungi), read-out: MICs, Candida pseudotropicalis A25802
Procedure: as §1

[4] = test system: Candida tropicalis A25809; assay: as above; format: cell-based; conditions: YM agar (pH 7.0, Difco), 30°C for 2 days (yeast) or 4 days (filamentous fungi), read-out: MICs, Candida tropicalis A25809
Procedure: as §1

[5] = test system: Candida tropicalis A25812; assay: as above; format: cell-based; conditions: A25812, YM agar (pH 7.0, Difco), 30°C for 2 days (yeast) or 4 days (filamentous fungi), read-out: MICs, Candida tropicalis A25812
Procedure: as §1

[6] = test system: Cryptococcus neoformans A15053; assay: as above; format: cell-based; conditions: A15053, YM agar (pH 7.0, Difco), 30°C for 2 days (yeast) or 4 days (filamentous fungi), read-out: MICs, Cryptococcus neoformans A15053
Procedure: as §1

[7] = test system: Microsporum canis WW10218; assay: as above; format: cell-based; conditions: WW10218, pH 7, read-out: MICs, Microsporum canis WW10218
Procedure: as §1

[8] = test system: Microsporum gypseum WW1107; assay: as above; format: cell-based; conditions: Nannizzia gypsea, YM agar (pH 7.0, Difco), 30°C for 2 days (yeast) or 4 days (filamentous fungi), read-out: MICs, Microsporum gypseum WW1107
Procedure: as §1

[9] = test system: Saccharomyces cerevisiae A25803; assay: as above; format: cell-based; conditions: YM agar (pH 7.0, Difco), 30°C for 2 days (yeast) or 4 days (filamentous fungi), read-out: MICs, Saccharomyces cerevisiae A25803
Procedure: as §1

[10] = test system: Trichophyton mentagrophytes A26771; assay: as above; format: cell-based; conditions: A26771, YM agar (pH 7.0, Difco), 30°C for 2 days (yeast) or 4 days (filamentous fungi), read-out: MICs, Trichophyton mentagrophytes A26771
Procedure: as §1

[11] = test system: Trichophyton rubrum A26761; assay: as above; format: cell-based; conditions: A26761, pH 7, read-out: MICs, Trichophyton rubrum A26761
Procedure: as §1

FA21436 = assay: In vitro antifungal activity, serial agar dilution method (Table 1); format: cell-based, Asoergukkys flavus; conditions: 40 h, pH 7, read-out: MIC, Asoergukkys flavus FA21436
Procedure: as §1, with “(MIC). Table 1. [table]” for “(MIC).”

[12] = test system: Aspergillus fumigatus IAM2034; assay: as above; format: cell-based; conditions: Aspergillus fumigatus, IAM2034; Sabouraud dextrose agar (pH 7.0); 28°C for 40 hours
Procedure: as §1, with “(MIC). Table 1. [table]” for “(MIC).”

[13] = test system: Aspergillus fumigatus IAM2530; assay: as above; format: cell-based; conditions: Aspergillus fumigatus, IAM2530; Sabouraud dextrose agar (pH 7.0); 28°C for 40 hours
Procedure: as §1, with “(MIC). Table 1. [table]” for “(MIC).”

[14] = test system: Blastomyces dermatidis D40; assay: as above; format: cell-based; conditions: Blastomyces, D40, 40 h, pH 7, read-out: MIC, Blastomyces dermatidis D40
Procedure: as §1, with “(MIC). Table 1. [table]” for “(MIC).”

Candida albicans A9540 [15] = assay: as above; format: cell-based; conditions: Candida albicans, A9540; Sabouraud dextrose agar (pH 7.0); 28°C for 40 hours
Procedure: as §1, with “(MIC). Table 1. [table]” for “(MIC).”

Candida albicans IAM4888 = assay: as above; format: cell-based; conditions: Candida albicans, IAM4888; Sabouraud dextrose agar (pH 7.0); 28°C for 40 hours
Procedure: as §1, with “(MIC). Table 1. [table]” for “(MIC).”

[16] = test system: Cryptococcus neoformans D49; assay: as above; format: cell-based; conditions: Cryptococcus neoformans, D49, 40 h, pH 7, read-out: MIC, Cryptococcus neoformans D49
Procedure: as §1, with “(MIC). Table 1. [table]” for “(MIC).”

[17] = test system: Cryptococcus neoformans IAM4514; assay: as above; format: cell-based; conditions: Cryptococcus neoformans, IAM4514; Sabouraud dextrose agar (pH 7.0); 28°C for 40 hours
Procedure: as §1, with “(MIC). Table 1. [table]” for “(MIC).”

[18] = test system: Fusarium moniliforme A2284; assay: as above; format: cell-based; conditions: Fusarium verticillioides, A2284; Sabouraud dextrose agar (pH 7.0); 28°C for 40 hours
Procedure: as §1, with “(MIC). Table 1. [table]” for “(MIC).”

Mucor spinosus IFO5317 = assay: as above; format: cell-based; conditions: Mucor spinosus, IFO5317; Sabouraud dextrose agar (pH 7.0); 28°C for 40 hours
Procedure: as §1, with “(MIC). Table 1. [table]” for “(MIC).”

[19] = test system: Petriellidium boydii IFO8078; assay: as above; format: cell-based; conditions: Scedosporium boydii, IFO8078; Sabouraud dextrose agar (pH 7.0); 28°C for 40 hours
Procedure: as §1, with “(MIC). Table 1. [table]” for “(MIC).”

[20] = test system: Sprotricosis schenckii IFO8158; assay: as above; format: cell-based; conditions: 40 h, pH 7, read-out: MIC, Sprotricosis schenckii IFO8158
Procedure: as §1, with “(MIC). Table 1. [table]” for “(MIC).”

[21] = test system: Trichophyton mentagrophytes #4329; assay: as above; format: cell-based; conditions: Trichophyton mentagrophytes; Sabouraud dextrose agar (pH 7.0); 28°C for 40 hours
Procedure: as §1, with “(MIC). Table 1. [table]” for “(MIC).”

[22] = test system: Trichophyton mentagrophytes D155; assay: as above; format: cell-based; conditions: Trichophyton mentagrophytes, D155; Sabouraud dextrose agar (pH 7.0); 28°C for 40 hours
Procedure: as §1, with “(MIC). Table 1. [table]” for “(MIC).”

[23] = Water solubility, protocol I (PBS, HPLC); format: physicochemical; conditions: Method I: PBS without CaCl₂ and MgCl₂.6H₂O
Procedure: The supernatant (2 µL) was analyzed by HPLC using the conditions specified for each compound in the Experimental Section. […] When not soluble, an additional amount of PBS (x µL) was added, sonicated, and centrifuged. When visibly soluble, the solution (2 µL) was injected to HPLC and the peak area was used for the known concentration of the sample.

MIC (FA21436) [µg/mL]	MIC [12] [µg/mL]	MIC [13] [µg/mL]	MIC [14] [µg/mL]	MIC (Candida albicans A9540 [15]) [µg/mL]	MIC (Candida albicans IAM4888) [µg/mL]	MIC [16] [µg/mL]	MIC [17] [µg/mL]	SMILES	MIC (Candida albicans A25578) [µg/mL]	MIC (Candida albicans A9540 [1]) [µg/mL]	MIC [2] [µg/mL]	MIC [3] [µg/mL]	MIC [4] [µg/mL]	MIC [5] [µg/mL]	MIC [6] [µg/mL]	MIC [7] [µg/mL]	MIC [8] [µg/mL]	MIC [9] [µg/mL]	MIC [10] [µg/mL]	MIC [11] [µg/mL]	other results
–	–	–	–	–	–	–	–	COc1cc(O)c2c(c1)C(=O)c1c(cc3c(c1O)-c1c(cc(C)c(C(=O)N[C@H](C)C(=O)O)c1O)[C@H](O[C@@H]1O[C@H](C)[C@H](N(C)C(=O)NS(=O)(=O)c4ccc(C)cc4)[C@H](O)[C@H]1O)[C@H]3O)C2=O [Ex. 19, N-(p-toluenesulfonylcarbamyl) pradimicin B]	12.5 (≈ 13.8 µM)	12.5 (≈ 13.8 µM)	25 (≈ 27.6 µM)	3.2 (≈ 3.53 µM)	6.3 (≈ 6.95 µM)	12.5 (≈ 13.8 µM)	6.3 (≈ 6.95 µM)	12.5 (≈ 13.8 µM)	50 (≈ 55.2 µM)	3.2 (≈ 3.53 µM)	50 (≈ 55.2 µM)	50 (≈ 55.2 µM)	–
> 50	12.5 (≈ 13.5 µM)	12.5 (≈ 13.5 µM)	50 (≈ 54 µM)	6.3 (≈ 6.8 µM)	6.3 (≈ 6.8 µM)	3.4 (≈ 3.67 µM)	3.1 (≈ 3.35 µM)	COc1cc(O)c2c(c1)C(=O)c1c(cc3c(c1O)-c1c(cc(C)c(C(=O)N[C@H](C)C(=O)O)c1O)[C@H](O[C@@H]1O[C@H](C)[C@H](N(C)C(=O)CN(C)C)[C@H](O[C@@H]4OC[C@@H](O)[C@H](O)[C@H]4O)[C@H]1O)[C@H]3O)C2=O [Ex. 16, N-(N,N-Dimethylglycyl) pradimicin A]	–	–	–	–	–	–	–	–	–	–	–	–	MIC [18]: > 50 µg/mL; MIC (Mucor spinosus IFO5317): > 50 µg/mL; MIC [19]: > 50 µg/mL; MIC [20]: 6.3 µg/mL (≈ 6.8 µM); MIC [21]: 6.3 µg/mL (≈ 6.8 µM); MIC [22]: 6.3 µg/mL (≈ 6.8 µM)
–	–	–	–	–	–	–	–	COc1cc(O)c2c(c1)C(=O)c1c(cc3c(c1O)-c1c(cc(C)c(C(=O)N[C@H](C)C(=O)O)c1O)[C@H](O[C@@H]1O[C@H](C)[C@H](N(C)C(=O)CN(C)C)[C@H](O)[C@H]1O)[C@H]3O)C2=O [Ex. 15, N-(N,N-dimethylglycyl) pradimicin B]	3.2 (≈ 4.03 µM)	6.3 (≈ 7.94 µM)	6.3 (≈ 7.94 µM)	1.6 (≈ 2.02 µM)	3.2 (≈ 4.03 µM)	6.3 (≈ 7.94 µM)	3.2 (≈ 4.03 µM)	6.4 (≈ 8.06 µM)	12.5 (≈ 15.7 µM)	3.2 (≈ 4.03 µM)	12.5 (≈ 15.7 µM)	2.5 (≈ 3.15 µM)	solubility [23]: 2000 µg/mL (≈ 2520 µM)
100 (≈ 108 µM)	100 (≈ 108 µM)	100 (≈ 108 µM)	> 100	100 (≈ 108 µM)	50 (≈ 54.1 µM)	50 (≈ 54.1 µM)	25 (≈ 27 µM)	COc1cc(O)c2c(c1)C(=O)c1c(cc3c(c1O)-c1c(cc(C)c(C(=O)N[C@H](C)C(=O)O)c1O)[C@H](O[C@@H]1O[C@H](C)[C@H](N(C)C/C=C/C(=O)O)[C@H](O[C@@H]4OC[C@@H](O)[C@H](O)[C@H]4O)[C@H]1O)[C@H]3O)C2=O [Ex. 13, N-(trans-3-carboxy-2-propenyl) pradimicin A]	–	–	–	–	–	–	–	–	–	–	–	–	MIC [18]: > 100 µg/mL; MIC (Mucor spinosus IFO5317): > 100 µg/mL; MIC [19]: > 100 µg/mL; MIC [20]: 100 µg/mL (≈ 108 µM); MIC [21]: > 100 µg/mL; MIC [22]: > 100 µg/mL
